Test system: finishing Nelore cattle in feedlot
Experiment: Animal performance trial: Crina Ruminants and Ronozyme Rumistar for finishing Nelore cattle in feedlot
Type: in vivo
Method: The study has been carried out at facilities of Animal Science Department at ESALQ/USP (University of São Paulo), Piracicaba-SP, Brazil. Treatments have been allocated in fifty pens, with 6 animals per pen. Water has been supplied for ad libitum consumption and feed once a day. Cattle have been withheld from feed and water for 16 hours before body weight (BW) assessment at the beginning and at the end of the experiment. After 28 and 56 days body weight (BW) has been assessed to monitor the partial average daily gain. [table] [table]

CC[C@@]1([C@@H]2O[C@@H]([C@H]3O[C@@](O)(CO)[C@H](C)C[C@@H]3C)C[C@@H]2C)CC[C@H]([C@]2(C)CC[C@]3(C[C@H](O)[C@@H](C)[C@@H]([C@@H](C)[C@@H](OC)[C@H](C)C(=O)O)O3)O2)O1 [MONENSIN, Monensin]
ADG (average daily gain) (After 59 days): 1.342b kg/d
DMI (dry matter intake) (After 59 days): 8.63b kg/d
FE (feed efficiency), ADG:DMI (After 59 days): 0.155b
ADG (average daily gain) (adaptation period - 28 days): 1.352b kg/d
DMI (dry matter intake) (adaptation period - 28 days): 7.73b kg/d
FE (feed efficiency), ADG:DMI (adaptation period - 28 days): 0.177bc

From patent US10610575B2, “Method for improving feed digestibility in bovine animals” (DSM IP ASSETS B.V., priority 2015, dated 2020)
